Reference: PubChem BioAssay AID1963825 (Molecular Pharmacology Branch, DTP, NCI, 2024)

Assay: Anticancer human tumor 997537-175-T-J1-PDC patient-derived colon adenocarcinoma cell line growth inhibition [POLQ]
Details: 997537-175-T-J1-PDC complex spheroid viability, combination with POLQ inhibitors; for IC50: curve of first compound; for viability, T/C: stronger effect = lower value
Description: Multicellular complex tumor spheroid response to Polymerase (POL) inhibitors (novobiocin, ART-558, RP6685) in combination with a variety of drugs and investigational agents in selected tumor cell lines
The POL inhibitors (novobiocin, ART-558, and RP6685) were evaluated both individually and in combination with standard of care and investigational anticancer small molecules within a complex spheroid model of solid tumors. . Complex spheroids include a stromal component modeled by human endothelial cells (HUVEC) and fibroblasts modeled by human mesenchymal stem cells (MSCs). The concentration ranges selected for each drug and investigational agent were based upon clinically achievable concentrations if the clinical Cmax of the agent was known.
Compounds. The drugs and investigational agents: novobiocin (NSC847541), ART-558 (NSC835418), RP-6685 (NSC848927), peposertib (NSC802822), ceralasertib (NSC780249), elimusertib (NSC800525), camonsertib (NSC841442), AZD-1390 (NSC803789), olaparib (NSC753686), talazoparib (NSC767125), rucaparib (NSC756644), sotorasib (NSC818433), MRTX-1133 (NSC836407), SN-38 (NSC673596), topotecan (NSC609699), epotoside (NSC141540), doxorubicin (NSC123127), gemcitabine (NSC613327), 5-fluorouracil (NSC19893), paclitaxel (NSC125973), vemurafenib (NSC761431), MSA-2 (NSC828583), SN-011 (NSC837082), adavosertib (NSC754352), prexasertib (NSC758257), carboplatin (NSC241240) and oxaliplatin (NSC266046), were obtained from the National Cancer Institute (NCI) Developmental Therapeutics Program Chemical Repository (21). The FDA-approved anticancer drug set is available from the Developmental Therapeutics Program at https://dtp.cancer.gov/organization/dscb/obtaining/. […] The stock solutions were prepared in dimethyl sulfoxide (DMSO, Sigma-Aldrich, St. Louis, MO, cat. D2650), except for the platinum compounds which were prepared in saline (Quality Biological, Gaithersburg, MD, cat. 114-055-101), at 800-fold the tested concentration and stored at -70 degrees C prior to their use. All drugs and investigational agents were tested over a range starting from a high concentration at or near the clinical Cmax and decreasing in half-log increments. If the clinical Cmax for an agent had not been determined, the highest concentration tested was 10 microM, except for SN-38, which was tested at a high concentration of 1 microM.
Cell Culture. All cells were maintained in an incubator at 37 degrees C and 5% CO2 with 95% humidity. The PDC lines were cultured according to standard operating procedures established by the NCI PDMR (https://pdmr.cancer.gov). Table 3 of the manuscript, lists the cell lines along with the number of the three cell types plated to form the mct-spheroids and media for tumor cell growth. After thawing, all PDC lines, except 997537-175-T-J1-PDC and 415267-285-R-J2-PDC, were cultured in Matrigel-coated flasks prepared with a working solution of 1X Ham's F-12 nutrient mix, without supplementation (Thermo Fisher Scientific, cat. 11765054), 100 U/mL penicillin-streptomycin (Thermo Fisher Scientific, cat. 15140122), and 2.5% Matrigel (Corning Inc., Corning, NY, cat. 354248) for the first three passages. The two PDC lines 997537-175-T-J1-PDC and 415267-285-R-J2-PDC were cultured on uncoated flasks. The 857933-349-R-J2-PDC line was cultured in 6C/Colon 1B media containing advanced DMEM/F-12 (Thermo Fisher Scientific, cat. 12634028), 10 mM HEPES (Thermo Fisher Scientific, cat. 15630080), 1X GlutaMAX supplement (Thermo Fisher Scientific, cat. 35050061), 0.1 mg/mL primocin (InvivoGen, San Diego, CA, cat. ant-pm-2), 10% defined fetal bovine serum, heat inactivated (HyClone Laboratories Inc., Logan, UT, cat. SH30070.03HI), 50% L-WRN conditioned media (ATCC, cat. CRL-3276), 1.25 mM N-Acetyl-L-cysteine (Sigma-Aldrich, cat. A9165), 10 mM nicotinamide (Sigma-Aldrich, cat. N0636), 1X B-27 supplement (Thermo Fisher Scientific, cat. 17504044), 1X N-2 supplement (Thermo Fisher Scientific, cat. […]
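Also: luminescence signal used as a surrogate for viable cells; spheroids exposed to drugs for seven days before readout.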

`C=CC(=O)N1CCN(c2nc(=O)n(-c3c(C)ccnc3C(C)C)c3nc(-c4c(O)cccc4F)c(F)cc23)C(C)C1` (configuration not stated) + COC1C(OC(N)=O)C(O)C(Oc2ccc3c(O)c(NC(=O)c4ccc(O)c(CC=C(C)C)c4)c(=O)oc3c2C)OC1(C)C gave an IC50 (second compound 0.0316 µM) of over 10 µM, an IC50 (second compound 0.1 µM) of over 10 µM and an IC50 (second compound 0.316 µM) of over 10 µM. The IC50 (second compound 1 µM) was over 10 µM, the IC50 (second compound 3.16 µM) was over 10 µM and the IC50 (second compound 10 µM) was over 10 µM. It also gave a viability, T/C (second compound 0.0316 µM, first compound 0.0316 µM) of 106%, a viability, T/C (second compound 0.0316 µM, first compound 0.1 µM) of 108% and a viability, T/C (second compound 0.0316 µM, first compound 0.316 µM) of 107%. It also gave a viability, T/C (second compound 0.0316 µM, first compound 1 µM) of 112%, a viability, T/C (second compound 0.0316 µM, first compound 3.16 µM) of 109% and a viability, T/C (second compound 0.0316 µM, first compound 10 µM) of 91.7%. It also gave a viability, T/C (second compound 0.1 µM, first compound 0.0316 µM) of 123%, a viability, T/C (second compound 0.1 µM, first compound 0.1 µM) of 125% and a viability, T/C (second compound 0.1 µM, first compound 0.316 µM) of 95.5%. For the same molecule, the viability, T/C (second compound 0.1 µM, first compound 1 µM) was 91.5%, the viability, T/C (second compound 0.1 µM, first compound 3.16 µM) was 115% and the viability, T/C (second compound 0.1 µM, first compound 10 µM) was 108%. For the same molecule, the viability, T/C (second compound 0.316 µM, first compound 0.0316 µM) was 106%, the viability, T/C (second compound 0.316 µM, first compound 0.1 µM) was 95.6% and the viability, T/C (second compound 0.316 µM, first compound 0.316 µM) was 106%. The viability, T/C (second compound 0.316 µM, first compound 1 µM) was 105%, the viability, T/C (second compound 0.316 µM, first compound 3.16 µM) was 117% and the viability, T/C (second compound 0.316 µM, first compound 10 µM) was 93.8%. The viability, T/C (second compound 1 µM, first compound 0.0316 µM) was 106%, the viability, T/C (second compound 1 µM, first compound 0.1 µM) was 113% and the viability, T/C (second compound 1 µM, first compound 0.316 µM) was 96.6%. The viability, T/C (second compound 1 µM, first compound 1 µM) was 105%, the viability, T/C (second compound 1 µM, first compound 3.16 µM) was 109% and the viability, T/C (second compound 1 µM, first compound 10 µM) was 105%. For the same molecule, the viability, T/C (second compound 3.16 µM, first compound 0.0316 µM) was 105%, the viability, T/C (second compound 3.16 µM, first compound 0.1 µM) was 101% and the viability, T/C (second compound 3.16 µM, first compound 0.316 µM) was 115%. For the same molecule, the viability, T/C (second compound 3.16 µM, first compound 1 µM) was 104%, the viability, T/C (second compound 3.16 µM, first compound 3.16 µM) was 101% and the viability, T/C (second compound 3.16 µM, first compound 10 µM) was 95.7%. For the same molecule, the viability, T/C (second compound 10 µM, first compound 0.0316 µM) was 96.3%, the viability, T/C (second compound 10 µM, first compound 0.1 µM) was 109% and the viability, T/C (second compound 10 µM, first compound 0.316 µM) was 93%. For the same molecule, the viability, T/C (second compound 10 µM, first compound 1 µM) was 105%, the viability, T/C (second compound 10 µM, first compound 3.16 µM) was 104% and the viability, T/C (second compound 10 µM, first compound 10 µM) was 96.7%.
